# Test results from US8252832B2, “Kinesin inhibitors as cancer therapeutics” (Novartis AG, priority 2007, dated 2012).
# Legend:
# Type in all cases: in vivo, mouse
# [1] = system: HCT116 tumor xenograft; experiment: HCT116 tumor xenograft model, tumor response; settings: i.v.
# Method: The cell line HCT-116 has been widely used in the evaluation of mitotic inhibitors such as microtubule disruptors, mitotic kinase inhibitors and KSP inhibitors. […] Experiments were performed using outbred athymic nu/nu mice approximately 6-8 weeks old (Charles River Laboratories, Hollister, Calif.). […] Mice were housed 4-5 animals per cage in clear polycarbonate micro-isolator cages with a 12-hour light, 12-hour dark cycle at temperatures between 70-80 degrees Fahrenheit and 30-70% relative humidity. Food (Purina rodent chow pellets) and water were provided ad libitum. Mice were handled in accordance with Novartis ACUC regulations and guidelines and the ILAR Guide for the Care and Use of Laboratory Animals. Experiments were performed in an AAALAC accredited facility under an ACUC approved protocol.
# (§1) Compound IIa (free base) and SB-715992 (ispinesib, a KSP inhibitor by Cytokinetics that is in clinical trials; as its free base) were formulated in 20% Captisol® for all the above doses for a dose volume of 8 mL/kg. Doses were adjusted to each animal's body weight.
# Human HCT116 colon carcinoma cells were obtained from the National Cancer Institute's DCTD Tumor Repository (catalog #NCI-502568, Rockville, Md.) and tested to be free of Mycoplasma sp. and murine viruses in the IMPACT1 PCR assay panel (RADIL, University of Missouri, Columbia, Mo.). HCT116 cells were grown in RPMI 1640 with 2 mM L-glutamine (Mediatech Inc., catalog #15-040-CV) supplemented with 10% fetal bovine serum (JRH Biosciences, catalog #12003-1000M). These cells were grown as adherent cultures, maintained at 37° C. in a humidified atmosphere containing 5% carbon dioxide. Cells were cultured for fewer than 10 passages prior to use. Cells were harvested at 95% confluency, and centrifuged at ˜800×g for 5 minutes at 4° C. and then resuspended in a cold HBSS (Mediatech Inc., catalog #21-021-CV) at a concentration of 50 million cells/mL for implantation subcutaneously (injection volume of 0.1 mL).
# (§2) Female nu/nu mice (Charles River, Hollister, Calif.) were injected subcutaneously in the right flank with 5 million HCT-116 tumor cells suspended in Hank's Balanced Salt Solution (HBSS) in a total volume of 0.1 mL/mouse. For the efficacy studies, mice were randomized 10 days post-implant. […] Tumor volume was calculated as (L×W2)/2. […] Percent treatment/control (T/C) values were calculated using the following formula: % T/C=100×ΔT/ΔC
# All data were expressed as mean and SEM. Between-groups comparisons for final tumor measurements were performed using the one-way ANOVA pair-wise analysis. Significance was determined using Kruskal-Wallis one-way ANOVA on Ranks and Dunn's method for multiple pair-wise comparisons. Statistical analysis was carried out using SigmaStat (Systat Software Inc., San Jose, Calif.).
# [2] = Subcutaneous MV4; 11 tumor xenograft model, host response
# Method: Subcutaneous tumor efficacy studies were performed using outbred athymic nu/nu mice approximately 6-8 weeks old (Charles River Laboratories, Hollister, Calif.). The efficacy study in the disseminated disease model was performed using immunodeficient NOD-SCID female mice approximately 7-8 weeks old (Jackson Laboratories, Bar Harbor, Me.). […] Routine animal care and assurance of welfare were as described above.
# The compound IIa (free base) and SB-715992 (free base) were formulated in 20% Captisol for a dose volume of 8 mL/kg. Doses were adjusted to each animal's body weight.
# For the two efficacy evaluations in the subcutaneous tumor model, 10 million cells combined in a 1:1 mixture of HBSS and Matrigel™ were injected subcutaneously in the right flank in a total volume of 0.2 mL/mouse. […] Tumor volume was calculated as (L×W2)/2.
# [3] = Subcutaneous KMS-11-luc tumor xenograft model, host response; settings: 7.5 mg/kg, Q4d × 3, i.v.
# Method: Experiments were performed using immunodeficient SCID-Beige female mice approximately 7-8 weeks old (Charles River Laboratories, Wilmington, Mass.). […] Routine animal care and assurance of welfare were as described above.
# Compound IIa and SB-715992 (free base) were formulated in 20% Captisol for a dose volume of 8 mL/kg. Doses were adjusted to each animal's body weight.
# For the efficacy evaluation in the subcutaneous tumor model, 10 million cells combined in a 1:1 mixture of HBSS and Matrigel™ were injected subcutaneously in the right flank in a total volume of […]. […] Tumor volume was calculated as (L×W2)/2. […] Data analysis was as described above.
# [4] = HCT116 tumor xenograft model, host response (body weight, survival, neutrophils); settings: i.v., q4d × 3; for Neutrophils/ul 72 h post-dose +/− S.D.: 72 h after last dose
# Method: The cell line HCT-116 has been widely used in the evaluation of mitotic inhibitors such as microtubule disruptors, mitotic kinase inhibitors and KSP inhibitors. A multi-dose efficacy study on a […] (q4d×3) dosing schedule was performed. Experiments were performed using outbred athymic nu/nu mice approximately 6-8 weeks old (Charles River Laboratories, Hollister, Calif.). […] Mice were housed 4-5 animals per cage in clear polycarbonate micro-isolator cages with a 12-hour light, 12-hour dark cycle at temperatures between 70-80 degrees Fahrenheit and 30-70% relative humidity. Food (Purina rodent chow pellets) and water were provided ad libitum. Mice were handled in accordance with Novartis ACUC regulations and guidelines and the ILAR Guide for the Care and Use of Laboratory Animals. Experiments were performed in an AAALAC accredited facility under an ACUC approved protocol.
# as §1, §2
# Since a dose as low as 1.25 mg/kg on a q4d×3 schedule induced regression of HCT116 xenografts, the efficacy study was repeated with a range of doses from 2 to 0.125 mg/kg to observe a dose response and determine how low a dose can be given to induce tumor regression. […] Only the 7.5 mg/kg dose of SB-715992 induced tumors to regress. Additionally, 72 hrs after the last dose, blood was collected to compare the circulating neutrophil levels among groups. Neutrophils were reduced in a dose responsive manner, similar to the tumor efficacy effect.
# [5] = Study 2, 1.8 mg/kg, Q4d × 3, i.v, D10
# [6] = Study 2, 3.5 mg/kg, Q4d × 3, i.v, D3
# [7] = Study 2, 7.5 mg/kg, Q4d × 3, i.v, D10
structure (smiles),measurement,setting,value
"Cc1ccc(C(=O)N(CCCN)[C@@H](c2nc3cc(Cl)ccc3c(=O)n2Cc2ccccc2)C(C)C)cc1 [SB-715992, Ispinesib, reference compound]","T/C, Day 24 (%)","[1]; 1.75 mg/kg, q4d × 3",36%
same,"Δ Tumor volume, Day 24","[1]; 1.75 mg/kg, q4d × 3",395 ± 84 mm^3
same,"T/C, Day 17 (%)","[1]; 3.5 mg/kg, q4d × 3",5%
same,"T/C, Day 24 (%)","[1]; 3.5 mg/kg, q4d × 3",15%
same,"Δ Tumor volume, Day 17","[1]; 3.5 mg/kg, q4d × 3",39 ± 4 mm^3
same,"Δ Tumor volume, Day 24","[1]; 3.5 mg/kg, q4d × 3",165 ± 60 mm^3
same,Max. % Regression (Day),"[1]; 3.5 mg/kg, q4d × 3, D7",13%
same,Max. % Regression (Day),"[1]; 3.5 mg/kg, q4d × 3, D11",10%
same,"Δ Tumor volume, Day 17","[1]; 7.5 mg/kg, q4d × 3",−177 ± 55 mm^3
same,"Δ Tumor volume, Day 24","[1]; 7.5 mg/kg, q4d × 3",−145 ± 25 mm^3
same,Max. % Regression (Day),"[1]; 7.5 mg/kg, q4d × 3, D17",65%
same,Max. % Regression (Day),"[1]; 7.5 mg/kg, q4d × 3, D21",65%
same,"Δ Tumor volume, Day 17","[1]; 15 mg/kg, q4d × 3 (only first two doses given)",−205 ± 24 mm^3
same,Max. % Regression (Day),"[1]; 15 mg/kg, q4d × 3 (only first two doses given), D20",73%
same,Survival (alive/total),"[2]; 15 mg/kg, q4d × 3, i.v., (body weight loss)",7/9 (body
same,"% Max. Δ body weight, (Day)","[2]; 15 mg/kg, q4d × 3, i.v., D3",−5.6 ± 1.1%
same,Max Δ body weight (g) (Day),"[2]; 15 mg/kg, q4d × 3, i.v., D3",-1.4 ± 0.3 g
same,Survival (alive/total),"[2]; Study 2, 1.8 mg/kg, Q4d × 3, i.v",9/9
same,"% Max. Δ body weight, (Day)",[2]; [5],"2.0 ± 1.0, %"
same,Max. Δ body weight (g) (Day),[2]; [5],"0.5 ± 0.4, g"
same,Survival (alive/total),"[2]; Study 2, 3.5 mg/kg, Q4d × 3, i.v",9/9
same,"% Max. Δ body weight, (Day)",[2]; [6],"0.7 ± 0.3, %"
same,Max. Δ body weight (g) (Day),[2]; [6],"0.2 ± 0.3, g"
same,Survival (alive/total),"[2]; Study 2, 7.5 mg/kg, Q4d × 3, i.v",9/9
same,"% Max. Δ body weight, (Day)",[2]; [7],"−1.4 ± 1.3, %"
same,Max. Δ body weight (g) (Day),[2]; [7],"−0.4 ± 0.8, g"
same,Survival (alive/total),[3],9/9
same,Max. Δ body weight (Day),[3]; D10,-0.96 ± 0.31 g
same,Max. Δ body weight (Day) (%),[3]; D10,−4.8 ± 1.93%
same,Survival (alive/total),[4]; 1.75 mg/kg,9/9
same,Neutrophils/ul 72 h post-dose +/− S.D.,[4]; 1.75 mg/kg,1026 ± 229 µL⁻¹
same,Max. Δ body weight (Day),"[4]; 1.75 mg/kg, D3",-0.6 ± 0.58 g
same,Max. Δ body weight (Day) (%),"[4]; 1.75 mg/kg, D3",−2.3 ± 0.51%
same,Survival (alive/total),[4]; 3.5 mg/kg,9/9
same,Neutrophils/ul 72 h post-dose +/− S.D.,[4]; 3.5 mg/kg,731 ± 391 µL⁻¹
same,Max. Δ body weight (Day),"[4]; 3.5 mg/kg, D3",-0.5 ± 0.37 g
same,Max. Δ body weight (Day) (%),"[4]; 3.5 mg/kg, D3",−2.0 ± 0.44%
same,Max. Δ body weight (Day),"[4]; 3.5 mg/kg, D4",-0.7 ± 0.05 g
same,Max. Δ body weight (Day) (%),"[4]; 3.5 mg/kg, D4",−2.7 ± 0.17%
same,Survival (alive/total),[4]; 7.5 mg/kg,9/9
same,Neutrophils/ul 72 h post-dose +/− S.D.,[4]; 7.5 mg/kg,476 ± 112 µL⁻¹
same,Max. Δ body weight (Day),"[4]; 7.5 mg/kg, D4",-0.3 ± 0.05 g
same,Max. Δ body weight (Day) (%),"[4]; 7.5 mg/kg, D4",−1.3 ± 0.25%
same,Max. Δ body weight (Day),"[4]; 7.5 mg/kg, D10",-0.7 ± 1.1 g
same,Max. Δ body weight (Day) (%),"[4]; 7.5 mg/kg, D10",−3.0 ± 2.49%
same,Survival (alive/total),[4]; 15 mg/kg,9/9
same,Max. Δ body weight (Day),"[4]; 15 mg/kg, D7",-2.5 ± 0.2 g
same,Max. Δ body weight (Day) (%),"[4]; 15 mg/kg, D7",−10.6 ± 0.75%
